{"source": "patent US11464756B1", "about": "“Mecuna pruriens, L-DOPA and 5-HTP based dietary supplements, pharmaceutical formulations and uses thereof” (priority 2017, dated 2022)", "key": {"[1]": {"conditions": "cited from earlier work"}, "serotonin levels": {"test_system": "serotonin levels", "assay": "Short term rise of serotonin levels after taking 5-HTP", "type": "in vivo", "conditions": "short term result of taking 5-HTP", "procedure": "Recently 5-HTP has been introduced to the US market. […] Taking 5-HTP in any of several forms can raise serotonin levels in a natural way by “Filling the Well”. There appears to be both a short term and long term results from taking 5-HTP. Short term there seems to be a ‘burst’ lasting 4-5 hours when levels rise, and long term as the “reservoir” or “water table” rises, to extend the metaphor, we notice that it takes much less 5-HTP to achieve the same result."}}, "data": [{"smiles": "N[C@@H](Cc1c[nH]c2ccc(O)cc12)C(=O)O", "note": "[Example 5-HTP, 5-Hydroxy-tryptophan]", "values": [{"measurement": "time in which it is decarboxylated in the bloodstream", "setting": "[1]", "result": "≤ 45", "unit": "min"}, {"measurement": "duration of short term 'burst' when levels rise", "setting": "serotonin levels", "result": "4 to 5", "unit": "h"}]}]}
